Results: PubChem BioAssay (NCI)
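48-hour exposure; five concentrations; linearly interpolated endpoints. At the TGI there is no net growth.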

How the values were obtained:
Assay in all cases: NCI tumour cell line growth inhibition, 48 h
786-0 renal = test system: 786-0 renal
A498 renal = test system: A498 renal
A549 NSCLC = test system: A549 NSCLC
ACHN renal = test system: ACHN renal
BT-549 breast = test system: BT-549 breast
CAKI-1 renal = test system: CAKI-1 renal
CCRF-CEM leukemia = test system: CCRF-CEM leukemia
COLO 205 colon = test system: COLO 205 colon
DLD-1 colon = test system: DLD-1 colon
DMS 114 small cell lung = test system: DMS 114 small cell lung
DMS 273 small cell lung = test system: DMS 273 small cell lung
DU-145 prostate = test system: DU-145 prostate
EKVX NSCLC = test system: EKVX NSCLC
HCC-2998 colon = test system: HCC-2998 colon
HCT-116 colon = test system: HCT-116 colon
HCT-15 colon = test system: HCT-15 colon
HL-60(TB) leukemia = test system: HL-60(TB) leukemia
HOP-18 NSCLC = test system: HOP-18 NSCLC
HOP-62 NSCLC = test system: HOP-62 NSCLC
HOP-92 NSCLC = test system: HOP-92 NSCLC
HS 578T breast = test system: HS 578T breast
HT29 colon = test system: HT29 colon
IGROV1 ovarian = test system: IGROV1 ovarian
K-562 leukemia = test system: K-562 leukemia
KM12 colon = test system: KM12 colon
KM20L2 colon = test system: KM20L2 colon
LOX IMVI melanoma = test system: LOX IMVI melanoma
M14 melanoma = test system: M14 melanoma
M19-MEL melanoma = test system: M19-MEL melanoma
MALME-3M melanoma = test system: MALME-3M melanoma
MCF7 breast = test system: MCF7 breast
MDA-MB-231 breast = test system: MDA-MB-231 breast
MDA-MB-435 = test system: MDA-MB-435
MDA-N = test system: MDA-N
MOLT-4 leukemia = test system: MOLT-4 leukemia
NCI-H226 lung = test system: NCI-H226 lung
NCI-H23 lung = test system: NCI-H23 lung
NCI-H460 lung = test system: NCI-H460 lung
NCI-H522 lung = test system: NCI-H522 lung
NCI/ADR-RES ovarian = test system: NCI/ADR-RES ovarian
OVCAR-3 ovarian = test system: OVCAR-3 ovarian
OVCAR-4 ovarian = test system: OVCAR-4 ovarian
OVCAR-5 ovarian = test system: OVCAR-5 ovarian
OVCAR-8 ovarian = test system: OVCAR-8 ovarian
P388 leukemia = test system: P388 leukemia
P388/ADR leukemia = test system: P388/ADR leukemia
PC-3 prostate = test system: PC-3 prostate
RPMI-8226 leukemia = test system: RPMI-8226 leukemia
RXF 393 renal = test system: RXF 393 renal
SF-268 CNS = test system: SF-268 CNS
SF-295 CNS = test system: SF-295 CNS
SF-539 CNS = test system: SF-539 CNS
SK-MEL-2 melanoma = test system: SK-MEL-2 melanoma
SK-MEL-28 melanoma = test system: SK-MEL-28 melanoma
SK-MEL-5 melanoma = test system: SK-MEL-5 melanoma
SK-OV-3 ovarian = test system: SK-OV-3 ovarian
SN12C renal = test system: SN12C renal
SN12K1 renal = test system: SN12K1 renal
SNB-19 CNS = test system: SNB-19 CNS
SNB-75 CNS = test system: SNB-75 CNS
SNB-78 CNS = test system: SNB-78 CNS
SR leukemia = test system: SR leukemia
SW-620 colon = test system: SW-620 colon
T-47D breast = test system: T-47D breast
TK-10 renal = test system: TK-10 renal
U251 CNS = test system: U251 CNS
UACC-257 melanoma = test system: UACC-257 melanoma
UACC-62 melanoma = test system: UACC-62 melanoma
UO-31 renal = test system: UO-31 renal

For `COc1cc2c(cc1OC)C(Cl)C(c1ccc(Br)cc1)=C2Cl` (centres undefined), which TGI (786-0 renal) is on record?
The TGI was 16.7 µM.

What about the TGI (A498 renal) of the same compound?
The TGI was 33.1 µM.

What about the TGI (A549 NSCLC) of the same compound?
Its TGI is 33 µM.

And the TGI (ACHN renal)?
Its TGI is 21.3 µM.

What about the TGI (BT-549 breast) of the same compound?
Its TGI is 5.44 µM.

What about the TGI (CAKI-1 renal) of the same compound?
Its TGI is 32 µM.

And the TGI (CCRF-CEM leukemia)?
The TGI was > 100 µM.

What about the TGI (COLO 205 colon) of the same compound?
The TGI was 29.1 µM.

What about the TGI (DLD-1 colon) of the same compound?
Its TGI is 27.6 µM.

And the TGI (DMS 114 small cell lung)?
Its TGI is 23.3 µM.

What about the TGI (DMS 273 small cell lung) of the same compound?
Its TGI is 31.6 µM.

And the TGI (DU-145 prostate)?
The TGI was 23.8 µM.

And the TGI (EKVX NSCLC)?
The TGI was 17.2 µM.

What about the TGI (HCC-2998 colon) of the same compound?
The TGI was 27.4 µM.

And the TGI (HCT-116 colon)?
Its TGI is 22.7 µM.

And the TGI (HCT-15 colon)?
Its TGI is 23.6 µM.

What about the TGI (HL-60(TB) leukemia) of the same compound?
The TGI was > 67.3 µM.

And the TGI (HOP-18 NSCLC)?
Its TGI is 56.4 µM.

And the TGI (HOP-62 NSCLC)?
Its TGI is 35.4 µM.

And the TGI (HOP-92 NSCLC)?
Its TGI is 36.2 µM.

What about the TGI (HS 578T breast) of the same compound?
The TGI was 59.3 µM.

What about the TGI (HT29 colon) of the same compound?
The TGI was 28.5 µM.

And the TGI (IGROV1 ovarian)?
Its TGI is 31.8 µM.

What about the TGI (K-562 leukemia) of the same compound?
The TGI was 41.9 µM.

And the TGI (KM12 colon)?
Its TGI is 34.6 µM.

And the TGI (KM20L2 colon)?
Its TGI is 41.3 µM.

And the TGI (LOX IMVI melanoma)?
The TGI was 24.4 µM.

And the TGI (M14 melanoma)?
The TGI was 23.3 µM.

What about the TGI (M19-MEL melanoma) of the same compound?
Its TGI is 36 µM.

What about the TGI (MALME-3M melanoma) of the same compound?
Its TGI is 28 µM.

And the TGI (MCF7 breast)?
The TGI was 21.2 µM.

And the TGI (MDA-MB-231 breast)?
Its TGI is 21.6 µM.

And the TGI (MDA-MB-435)?
Its TGI is 17.4 µM.

And the TGI (MDA-N)?
The TGI was 13.6 µM.

What about the TGI (MOLT-4 leukemia) of the same compound?
Its TGI is 49.2 µM.

What about the TGI (NCI-H226 lung) of the same compound?
The TGI was > 55.1 µM.

And the TGI (NCI-H23 lung)?
The TGI was 23.8 µM.

What about the TGI (NCI-H460 lung) of the same compound?
Its TGI is 25.8 µM.

What about the TGI (NCI-H522 lung) of the same compound?
The TGI was 12.8 µM.

And the TGI (NCI/ADR-RES ovarian)?
The TGI was 30.9 µM.

What about the TGI (OVCAR-3 ovarian) of the same compound?
The TGI was 24.1 µM.

And the TGI (OVCAR-4 ovarian)?
The TGI was 63.5 µM.

What about the TGI (OVCAR-5 ovarian) of the same compound?
Its TGI is 31 µM.

And the TGI (OVCAR-8 ovarian)?
The TGI was 26.1 µM.

What about the TGI (P388 leukemia) of the same compound?
Its TGI is > 100 µM.

And the TGI (P388/ADR leukemia)?
The TGI was > 100 µM.

And the TGI (PC-3 prostate)?
Its TGI is 21.6 µM.

What about the TGI (RPMI-8226 leukemia) of the same compound?
The TGI was 15.2 µM.

What about the TGI (RXF 393 renal) of the same compound?
The TGI was 24.6 µM.

What about the TGI (SF-268 CNS) of the same compound?
The TGI was 29.4 µM.

And the TGI (SF-295 CNS)?
Its TGI is 30.5 µM.

What about the TGI (SF-539 CNS) of the same compound?
Its TGI is 26.1 µM.

And the TGI (SK-MEL-2 melanoma)?
The TGI was 22.5 µM.

And the TGI (SK-MEL-28 melanoma)?
Its TGI is 30.7 µM.

And the TGI (SK-MEL-5 melanoma)?
Its TGI is 28.6 µM.

What about the TGI (SK-OV-3 ovarian) of the same compound?
Its TGI is 45.9 µM.

What about the TGI (SN12C renal) of the same compound?
Its TGI is 25.4 µM.

What about the TGI (SN12K1 renal) of the same compound?
The TGI was 29.4 µM.

What about the TGI (SNB-19 CNS) of the same compound?
The TGI was 32 µM.

And the TGI (SNB-75 CNS)?
Its TGI is 27.7 µM.

What about the TGI (SNB-78 CNS) of the same compound?
The TGI was 32.6 µM.

And the TGI (SR leukemia)?
Its TGI is > 100 µM.

And the TGI (SW-620 colon)?
Its TGI is 23.4 µM.

And the TGI (T-47D breast)?
The TGI was 15.1 µM.

What about the TGI (TK-10 renal) of the same compound?
Its TGI is 23.6 µM.

And the TGI (U251 CNS)?
Its TGI is 24.8 µM.

What about the TGI (UACC-257 melanoma) of the same compound?
The TGI was 31.6 µM.

And the TGI (UACC-62 melanoma)?
Its TGI is 50.6 µM.

What about the TGI (UO-31 renal) of the same compound?
The TGI was 17.1 µM.
